Source: patent US20260365647A1, “AKT1 MODULATORS” (Alterome Therapeutics, Inc., priority 2022, published 2026)

Molecular target: T1, AKT1-E17K (Homo sapiens, UniProt P31749, E17K)
T1 construct: host or cells: HEK-293 (ATCC CRL-1573)
Experiment: NanoBRET Target Engagement (TE) Assay
Format: cell-based
Method in brief: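 Live cells transiently expressing NanoLuc-AKT1 E17K fusion, incubated 2 h with tracer and compound before substrate plus extracellular NanoLuc inhibitor were added. BRET read at 450/600 nm; EC50 from variable-slope sigmoidal fit of tracer displacement.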

T1 sequence (P31749 whole entry E17K): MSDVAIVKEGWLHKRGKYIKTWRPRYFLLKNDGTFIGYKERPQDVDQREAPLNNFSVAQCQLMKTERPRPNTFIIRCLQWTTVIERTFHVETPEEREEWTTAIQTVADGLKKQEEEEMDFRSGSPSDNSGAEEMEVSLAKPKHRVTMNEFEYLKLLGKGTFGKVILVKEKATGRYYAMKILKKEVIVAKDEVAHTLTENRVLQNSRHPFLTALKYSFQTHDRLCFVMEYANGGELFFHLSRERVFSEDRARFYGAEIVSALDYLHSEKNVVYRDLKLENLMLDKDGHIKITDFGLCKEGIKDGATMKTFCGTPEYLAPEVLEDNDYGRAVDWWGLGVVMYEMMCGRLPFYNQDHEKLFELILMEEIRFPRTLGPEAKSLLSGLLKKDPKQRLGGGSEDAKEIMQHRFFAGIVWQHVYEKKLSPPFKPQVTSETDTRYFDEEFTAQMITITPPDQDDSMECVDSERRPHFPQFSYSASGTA

Row | Structure (SMILES) | IC50 [nM]
1 | Nc1ncccc1-c1nc2ccc(-c3ccccc3)nc2n1-c1ccc(CN2CC(NC(=O)c3ccc(C=O)c(O)c3)C2)cc1 [Example 65, N-(1-(4-(2-(2-Aminopyridin-3-yl)-5-phenyl-3H-imidazo[4,5-h]pyridin-3-yl)benzyl)azetidin-3-yl)-4-formyl-3-hydroxybenzamide] | 15 to 60
2 | Nc1ncccc1-c1nc2ccc(C3=CCCCC3)nc2n1-c1ccc(CN2CCN(C(=O)c3ccc(O)c(C=O)c3)CC2)cc1 [Example 150, 5-(4-(4-(2-(2-aminopyridin-3-yl)-5-(cyclohex-1-en-1-yl)-3H-imidazo[4,5-b]pyridin-3-yl)benzyl)piperazine-1-carbonyl)-2-hydroxybenzaldehyde] | 60 to 600
3 | CCN(C(=O)c1ccc(O)c(C=O)c1)C1CCN(Cc2ccc(-n3c(-c4cccnc4N)nc4ccc(-c5ccccc5)nc43)cc2)CC1 [Example 13, N-(1-(4-(2-(2-Aminopyridin-3-yl)-5-phenyl-3H-imidazo[4,5-b]pyridin-3-yl)benzyl)piperidin-4-yl)-N-ethyl-3-formyl-4-hydroxybenzamide] | 60 to 600
4 | Nc1ncccc1-c1nc2ccc(-c3ccccc3)nc2n1-c1ccc(CN2CC3CCC2CN3c2ccc(C=O)c(O)c2)cc1 (centres unmarked) [Example 127, 4-(5-(4-(2-(2-Aminopyridin-3-yl)-5-phenyl-3H-imidazo[4,5-b]pyridin-3-yl)benzyl)-2,5-diazabicyclo[2.2.2]octan-2-yl)-2-hydroxybenzaldehyde] | 60 to 600
5 | Nc1ncccc1-c1nc2ccc(-c3ccccc3)nc2n1-c1ccc(CN2C3CCC2CN(C(=O)c2ccc(O)c(C=O)c2)C3)cc1 [Example 112, 5-(8-(4-(2-(2-Aminopyridin-3-yl)-5-phenyl-3H-imidazo[4,5-b]pyridin-3-yl)benzyl)-3,8-diazabicyclo[3.2.1]octane-3-carbonyl)-2-hydroxybenzaldehyde] | > 600
